We go through eleven compounds from patent US20250099493A1, “PHOSPHONATES AS INHIBITORS OF ENPP1 AND CDNP” (STINGRAY THERAPEUTICS, INC., priority 2020, published 2025).

One assay has as its target Recombinant CdnP Protein (Mycobacterium tuberculosis (strain ATCC 25618 / H37Rv), UniProt P71615). The experiment in a line: CdnP HPLC Assay with C-DI-AMP Substrate. The settings on record: HPLC AMP peak area, read-out: Inhibition percentage of CdnP; for inhibition at 100 µM: 100 μM compound. It counts as biochemical, M. tuberculosis.
Assay [1] concerns the target Recombinant Human ENPP-1 Protein (Homo sapiens (Human), UniProt P22413). The experiment in a line: ENPP1 Inhibition Assay. It counts as biochemical. The protocol: Assay Buffer: 1 mM CaCl2), 0.2 mM ZnCl2, 50 mM Tris, pH 9.0. Substrate: 8 mM Thymidine 5′-monophosphate p-nitrophenol ester sodium salt (Sigma Cat #T4510). Enzyme: […] Recombinant Human ENPP-1 Protein (R&D Cat #6136-EN-010) in DMSO in 96-well clear assay plates.
An eight point serial dilution of drugs was prepared in 10× in assay buffer with the final assay concentrations starting at 10 μM, 3 μM, 1 μM, 0.3 μM and 0 μM. A dilution of DMSO was included as a control. The assay plate was set up as follows with each well in duplicate: 81 μL assay buffer+10 μL ENPP1 inhibitor or DMSO+5 μL Substrate+4 μL Enzyme. Both the enzyme and substrate was added to opposite sides of the well to ensure that there was no interaction until all wells had both components. The plate was then centrifuged gently for 10 seconds, followed by an incubation at 37° C. for 45 minutes. The reaction was quantified by measuring absorbance at 405 nm using an Envision plate reader.
IC50 values are determined using GraphPad Prism 5 software. The data were entered as an X-Y plot into the software as percent inhibition for each concentration of the drug. The concentration values of the drug were log transformed and the nonlinear regression was carried out using the “sigmoidal dose-response (variable slope)” option within the GraphPad software to model the data and calculate IC50 values. The IC50 values reported are the concentration of drug at which 50% inhibition was reached.

The target of another assay is Recombinant CndP (CdnP) (Mycobacterium tuberculosis (strain ATCC 25618 / H37Rv), UniProt P71615). The experiment in a line: CndP Assay with BPNPP substrate. It counts as biochemical, M. tuberculosis. The following applies: pH 8.0, 37° C. 45 minutes, read-out: Inhibition of CdnP IC50.
Setting [2] is: substrate thymidine 5′-monophosphate p-nitrophenol ester, pH 9.0, 37° C. 45 minutes, read-out: Inhibition of ENPP1 IC50.

Like-named read-outs stand apart in the source and are kept apart here. Some results are limits rather than exact numbers.

Sequence of Recombinant Human ENPP-1 Protein (P22413 99-925): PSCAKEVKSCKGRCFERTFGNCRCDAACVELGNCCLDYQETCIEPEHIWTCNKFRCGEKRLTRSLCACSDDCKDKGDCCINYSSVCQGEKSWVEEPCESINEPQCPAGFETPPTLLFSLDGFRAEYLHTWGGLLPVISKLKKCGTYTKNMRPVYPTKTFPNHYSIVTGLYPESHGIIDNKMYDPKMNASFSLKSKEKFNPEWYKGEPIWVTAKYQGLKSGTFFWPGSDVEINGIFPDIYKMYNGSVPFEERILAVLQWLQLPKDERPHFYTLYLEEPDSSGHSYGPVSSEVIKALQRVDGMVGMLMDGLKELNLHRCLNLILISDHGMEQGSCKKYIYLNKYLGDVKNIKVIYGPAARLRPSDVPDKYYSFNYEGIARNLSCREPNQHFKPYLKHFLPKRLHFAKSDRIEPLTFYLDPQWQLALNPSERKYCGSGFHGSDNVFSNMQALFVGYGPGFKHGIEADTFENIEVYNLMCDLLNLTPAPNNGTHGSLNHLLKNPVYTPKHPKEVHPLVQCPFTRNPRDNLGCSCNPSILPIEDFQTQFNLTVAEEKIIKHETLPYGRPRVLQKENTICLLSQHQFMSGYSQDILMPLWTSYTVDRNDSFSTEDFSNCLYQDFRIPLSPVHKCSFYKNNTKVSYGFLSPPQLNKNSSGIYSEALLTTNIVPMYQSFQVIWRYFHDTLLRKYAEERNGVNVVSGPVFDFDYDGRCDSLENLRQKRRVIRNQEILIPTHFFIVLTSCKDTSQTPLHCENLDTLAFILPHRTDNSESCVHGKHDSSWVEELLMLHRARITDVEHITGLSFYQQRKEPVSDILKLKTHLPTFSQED
Sequence of Recombinant CdnP Protein (P71615 whole entry, looked up): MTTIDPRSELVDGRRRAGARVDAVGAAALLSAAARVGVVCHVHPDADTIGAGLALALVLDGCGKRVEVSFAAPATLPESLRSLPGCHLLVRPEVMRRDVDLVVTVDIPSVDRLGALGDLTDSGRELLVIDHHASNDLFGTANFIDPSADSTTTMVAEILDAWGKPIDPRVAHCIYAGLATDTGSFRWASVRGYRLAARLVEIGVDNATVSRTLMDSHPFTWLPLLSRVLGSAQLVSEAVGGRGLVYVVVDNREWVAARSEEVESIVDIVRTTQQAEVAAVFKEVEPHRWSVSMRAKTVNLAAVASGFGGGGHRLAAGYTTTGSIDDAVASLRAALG
Sequence of Recombinant CndP (CdnP) (P71615 whole entry, looked up): as above

`COc1cc2ncnc(N3CCC[C@@H](CP(=O)(O)O)CC3)c2cc1OC` [Compound I-1, (R)-((1-(6,7-dimethoxyquinazolin-4-yl)azepan-4-yl)methyl)phosphonic acid]: the inhibition at 1 µM on Recombinant CdnP Protein (1 μM compound) is below 20%. For the same compound, the inhibition at 10 µM at Recombinant CdnP Protein (10 μM compound) is above 50%. For the same compound, the inhibition at 100 µM at Recombinant CdnP Protein is above 50%. Moreover, the figures for the IC50 (in assay [1]; on Recombinant CndP (CdnP)) were 0.01 to 0.1 µM and 0.1 to 1 µM, respectively.
With `COc1cc2ncnc(N3CCC[C@H](CP(=O)(O)O)CC3)c2cc1OC` [Compound I-2, (S)-((1-(6,7-dimethoxyquinazolin-4-yl)azepan-4-yl)methyl)phosphonic acid], the IC50 in assay [1] (setting [2]) is above 0.1 µM; at Recombinant CndP (CdnP) it was 0.1 to 1 µM.
Regarding `COc1cc2ncnc(N3CCCC(CP(=O)(O)O)CC3)c2cc1OC` (stereo not drawn) [Compound I-3, ((1-(6,7-dimethoxyquinazolin-4-yl)azepan-4-yl)methyl)phosphonic acid], the IC50 in assay [1] fell in the range of 0.01 to 0.1 µM; on Recombinant CndP (CdnP), 0.1 to 1 µM.
For the compound `COc1cc2ncnc(N3CCCC(CCP(=O)(O)O)CC3)c2cc1OC` (stereo not drawn) [Compound I-4, (2-(1-(6,7-dimethoxyquinazolin-4-yl)azepan-4-yl)ethyl)phosphonic acid], the IC50 in assay [1] (setting [2]) was below 0.01 µM; on Recombinant CndP (CdnP), below 0.1 µM.
With `COc1cc2ncnc(N3CCCC(CCCP(=O)(O)O)CC3)c2cc1OC` (stereo not drawn) [Compound I-5, (3-(1-(6,7-dimethoxyquinazolin-4-yl)azepan-4-yl)propyl)phosphonic acid], the IC50 was 0.01 to 0.1 µM in assay [1] and 0.1 to 1 µM at Recombinant CndP (CdnP).
With `COc1cc2ncnc(N3CCCN(CP(=O)(O)O)CC3)c2cc1OC` [Compound I-6, ((4-(6,7-dimethoxyquinazolin-4-yl)-1,4-diazepan-1-yl)methyl)phosphonic acid], the values for the IC50 (in assay [1] (setting [2]); at Recombinant CndP (CdnP)) were above 0.1 µM and above 1 µM, respectively.
The corresponding values for `COc1cc2ncc(C#N)c(N3CCCC(CP(=O)(O)O)CC3)c2cc1OC` (stereo not drawn) [Compound I-7, ((1-(3-cyano-6,7-dimethoxyquinolin-4-yl)azepan-4-yl)methyl)phosphonic acid] are below 0.01 µM and below 0.1 µM.
The corresponding values for `COc1cccc2c(N3CCCC(CP(=O)(O)O)CC3)ccnc12` (stereo not drawn) [Compound I-8, ((1-(8-methoxyquinolin-4-yl)azepan-4-yl)methyl)phosphonic acid] are above 0.1 µM and 0.1 to 1 µM.
Turning to `COc1cccc2c(N3CCCC(CP(=O)(O)O)CC3)ncnc12` (stereo not drawn) [Compound I-9, ((1-(8-methoxyquinazolin-4-yl)azepan-4-yl)methyl)phosphonic acid], the IC50 in assay [1] (setting [2]) was below 0.01 µM; on Recombinant CndP (CdnP) it was 0.1 to 1 µM.
The corresponding values for `COc1cc2ncnc(N3CCCC(CP(=O)(OCOC(=O)C(C)C)OCOC(=O)C(C)C)CC3)c2cc1OC` (stereo not drawn) [Compound I-10, ((((1-(6,7-dimethoxyquinazolin-4-yl)azepan-4-yl)methyl)phosphoryl)bis(oxy))bis(methylene) bis(2-methylpropanoate)] are above 0.1 µM and above 1 µM.
Regarding `COc1cc2ncnc(-c3ccc(CP(=O)(O)O)nc3)c2cc1OC` [II-1, ((5-(6,7-dimethoxyquinazolin-4-yl)pyridin-2-yl)methyl)phosphonic acid], the inhibition at 100 µM on Recombinant CdnP Protein is above 50%.

Usually inhibition stands for the share of the control response that was lost under treatment. In general, IC50 refers to the concentration that inhibits the measured activity by half.
